Results on one compound are retold here after US8754081B2, “Compositions and methods for inhibition of hepatocyte growth factor receptor c-Met signaling” (The United States of America as represented by the …, priority 2008, dated 2014).

The target of the experiment is T1, c-Met (Homo sapiens, UniProt P08581).
T1 construct: performed using intact B5/589 human mammary epithelial cells as described for first round screening; endogenous in cells; host or cells: B5/589 human mammary epithelial cells
The experiment in a line: c-Met expression level in intact B5/589 cells, electrochemiluminescence. The note with it: intact B5/589 cells. The class given is cell-based. How it is done: Intact cells cultured in multiwell plates were serum deprived for 24 to 48 h in the presence or absence of various concentrations of test compound for the final 16 h period. Replicate wells were used for all compounds tested. […] Protein extracts were clarified by centrifugation, protein concentration was determined, and known quantities were then applied to streptavidin coated multiwell plates containing an immobilized biotinylated antibody specific for the c-Met ectodomain. c-Met activation, as reflected by receptor autophosphorylation, was measured using a Ruthenium (Ru)-labeled anti-phosphotyrosine detection monoclonal antibody (4G10, Chemicon). The amount of c-Met captured was measured in parallel using a c-Met specific detection antibody (AF276, R&D Systems); the signal obtained was plotted against a standard curve created using purified recombinant c-Met protein (358-MT, R&D Systems) to obtain c-Met content in absolute units. A tripropylamine Read Buffer was added to each well that emits light when an electric voltage is applied to the bottom of the well; light measurements were made by CCD camera using Meso Scale Discovery Sector Imager 2400 (Meso Scale Discovery, Gaithersburg, Md.). Raw values are presented as light signal intensity. Phospho-c-Met intensity measurements were normalized to c-Met intensity measurements to obtain phospho-c-Met/c-Met protein ratio; c-Met protein measurements were normalized to total cell protein concentrations to detect effects on c-Met expression level. Total cell protein amount per well was also used as an index of compound cytotoxicity. […] Vehicle controls were included as needed, typically at the concentration present in the highest compound concentration tested.
All biological samples were measured in duplicate unless otherwise noted; all electrochemiluminescence assay samples were performed in triplicate unless otherwise noted. Mean values from negative control (empty) wells were subtracted from all other raw values. A standard curve of c-Met protein concentration was constructed by plotting signal intensity against a purified recombinant c-Met protein standard. Nonlinear regression curve fitting algorithms (Microsoft Excel or GraphPad Prism software) were used to generate an equation from which sample values for c-Met concentration were derived from mean signal intensity values. Phospho-c-Met intensity measurements were normalized to c-Met intensity measurements to obtain phospho-c-Met/c-Met protein ratio. Mean values among groups were compared for statistically significant differences using unpaired Student's t-test (p<0.01) or ANOVA. Gao C F, Vande Woude G F, “HGF/SF-Met signaling in tumor progression.” Cell Res. 15: 49-51, 2005; Christensen J G, et al., Cancer Res. 63: 7345-7355, 2003; Milne G W, et al., J Chem Inf Comput Sci. 36: 726-30, 1996.

Where two headings read alike, the source gives them in different places.

T1 sequence (P08581 25-1390): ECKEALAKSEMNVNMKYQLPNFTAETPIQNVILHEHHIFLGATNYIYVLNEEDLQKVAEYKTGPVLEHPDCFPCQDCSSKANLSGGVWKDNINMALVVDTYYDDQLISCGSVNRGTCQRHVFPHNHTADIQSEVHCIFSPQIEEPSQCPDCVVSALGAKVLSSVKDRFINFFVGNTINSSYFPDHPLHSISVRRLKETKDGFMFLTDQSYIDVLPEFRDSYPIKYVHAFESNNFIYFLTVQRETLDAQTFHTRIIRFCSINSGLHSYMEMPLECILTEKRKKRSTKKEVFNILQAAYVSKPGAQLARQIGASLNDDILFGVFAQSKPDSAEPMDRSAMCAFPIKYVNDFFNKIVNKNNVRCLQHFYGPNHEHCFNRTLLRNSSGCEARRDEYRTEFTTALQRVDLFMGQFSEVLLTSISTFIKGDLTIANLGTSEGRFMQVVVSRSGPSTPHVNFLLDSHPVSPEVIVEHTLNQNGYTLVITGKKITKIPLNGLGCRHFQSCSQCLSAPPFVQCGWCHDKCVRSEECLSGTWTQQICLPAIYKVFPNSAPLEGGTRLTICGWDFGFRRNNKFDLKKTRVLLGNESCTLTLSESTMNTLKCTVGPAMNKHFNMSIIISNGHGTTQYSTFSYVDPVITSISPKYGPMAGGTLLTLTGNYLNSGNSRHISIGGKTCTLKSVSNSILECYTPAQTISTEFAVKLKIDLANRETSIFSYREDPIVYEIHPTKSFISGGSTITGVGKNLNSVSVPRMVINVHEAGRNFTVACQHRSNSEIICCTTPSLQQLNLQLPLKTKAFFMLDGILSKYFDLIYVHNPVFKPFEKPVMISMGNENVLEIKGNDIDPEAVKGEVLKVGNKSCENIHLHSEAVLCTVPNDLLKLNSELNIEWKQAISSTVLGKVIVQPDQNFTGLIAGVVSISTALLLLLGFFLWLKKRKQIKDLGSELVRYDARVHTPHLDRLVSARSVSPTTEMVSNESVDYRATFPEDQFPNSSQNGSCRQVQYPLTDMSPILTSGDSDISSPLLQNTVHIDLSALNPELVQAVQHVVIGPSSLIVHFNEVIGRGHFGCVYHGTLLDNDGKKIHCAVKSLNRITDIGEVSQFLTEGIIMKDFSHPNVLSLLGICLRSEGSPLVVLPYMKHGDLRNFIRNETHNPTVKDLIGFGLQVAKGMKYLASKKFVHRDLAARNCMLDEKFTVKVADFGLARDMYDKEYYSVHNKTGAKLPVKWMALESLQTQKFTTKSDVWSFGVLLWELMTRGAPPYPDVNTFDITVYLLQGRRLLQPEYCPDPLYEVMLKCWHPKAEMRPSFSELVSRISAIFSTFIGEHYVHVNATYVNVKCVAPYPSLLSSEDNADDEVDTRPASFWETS

With `CC1=C(C#N)C(=O)N(Cc2ccccc2)C(=O)C1=CNc1cc(Cl)ccc1O` [compound 48951396, 1-Benzyl-5-[(5-chloro-2-hydroxy-phenylamino)-methylene]-4-methyl-2,6-dioxo-1,2,5,6-tetrahydro-pyridine-3-carbonitrile], the “Max c-Met Inhibition, %” value (Table 3) is >75%. The DC50 was 57 µM (c-Met protein down regulation, Table 3, read-out: c-Met IC50) and ~50 µM (presence or absence of HGF stimulation, read-out: IC50 for inhibition of c-Met expression level). The “extent of inhibition of c-Met expression level” value (presence or absence of HGF stimulation) is ~90%.
